This experiment has as its target T1, PRL-3 (Homo sapiens, UniProt O75365).
T1 construct: endogenous in cells; host or cells: BT-20 cells
As to the kind of experiment: PRL-3 degradation in BT-20 cells. Type of experiment: cell-based. As to conditions: proteasomal inhibitor with 100 nM compound A, FIG. 6.

Consider 1 compound from patent US20230241081A1, “Method for Treating Melanoma” (The Regents of the University of Colorado, a body corporate, priority 2020, published 2023).

Residues, ends and D or L forms follow the SMILES beside them. *: point of attachment. Cbz = O=C(OCc1ccccc1)*

T1 sequence (O75365 whole entry): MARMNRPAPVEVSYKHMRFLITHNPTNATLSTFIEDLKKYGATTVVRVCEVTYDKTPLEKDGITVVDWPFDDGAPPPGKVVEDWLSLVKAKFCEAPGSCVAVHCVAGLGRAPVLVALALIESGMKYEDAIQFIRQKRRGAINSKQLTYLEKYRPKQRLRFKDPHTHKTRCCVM

On to `CC(C)C[C@@H](C=O)NC(=O)[C@H](CC(C)C)NC(=O)[C@H](CC(C)C)NC(=O)OCc1ccccc1` [MG-132] (Cbz-Leu-Leu-Leu-aldehyde), for which the “effect on compound A-mediated degradation of PRL-3” value is reported as “block compound A-mediated degradation of PRL-3”.
